Legend:
[1] = molecular target: T1, ULK1 kinase (Homo sapiens, UniProt O75385, E37A/K38A); assay: Biochemical assay for ULK1.3 (coupled pyruvate kinase/lactate dehydrogenase assay, peptide substrate); conditions: 0.1 nM ULK1 (residues 1-283), 1 mM ATP
T1 construct: purchased Beryllium
T1 sequence (O75385 1-283 E37A/K38A): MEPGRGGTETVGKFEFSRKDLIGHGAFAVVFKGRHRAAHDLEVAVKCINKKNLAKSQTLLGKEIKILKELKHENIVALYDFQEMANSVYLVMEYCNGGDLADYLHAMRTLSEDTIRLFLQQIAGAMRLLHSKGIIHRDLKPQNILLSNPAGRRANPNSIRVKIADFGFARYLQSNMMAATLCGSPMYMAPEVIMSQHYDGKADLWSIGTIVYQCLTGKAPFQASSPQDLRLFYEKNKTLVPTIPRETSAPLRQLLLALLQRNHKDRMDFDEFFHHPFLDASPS
Method: Biochemical Assay for ULK1.3 (SEQ. ID NO: 2)
Inhibition of ULK1 was measured by adding serial diluted test compound (final assay concentration of 1% DMSO). A decrease in absorption at 340 nm was monitored continuously for 6 hours at 30° C. on a multi-mode microplate reader (BioTek). The reaction rate was calculated using the 2-3 h time frame. The reaction rate at each concentration of compound was converted to percent inhibition using controls (i.e. reaction with no test compound and reaction with a known inhibitor) and IC50 values were calculated using software routines in Prism (GraphPad software).

[2] = system: ULK kinase; assay: pATG13 levels of mutant KRas A549 cells after treatment with ULK inhibitors in combination with trametinib (ELISA); assay type: cell-based, human; conditions: A549 (KRAS mutant) lung cancer cells, 250 nM trametinib, overnight, pS318-ATG13
Method: Cellular Inhibition of ULK Kinase Substrate ATG13 Protein pATG13 Levels of Mutant KRas A549 Cells after Treatment with ULK Inhibitors in Combination with Trametinib
(§1) A549 (KRAS mutant) human lung cancer cells (6,000 cells/well) were added to a 384-well tissue-culture treated plate in 50 μL of pre-warmed DMEM medium supplemented with 10% characterized fetal bovine serum (Invitrogen, Carlsbad, Calif.), 100 units/mL penicillin G, and 100 μg/mL streptomycin and allowed to grow overnight at 37° C., 5% CO2, and 95% humidity. The following day, 10 μL of media containing trametinib or DMSO as a control was added to wells. […] A dose response of a test compound (0.6 μL per well) was added. DMSO (0.6 μL) was added to control wells. The plate was briefly shaken to mix wells and then incubated at 37° C. overnight. The next day, the media was aspirated and cells were washed with Dulbecco's Phosphate Buffered Saline (Gibco). Cells were lysed using MPER lysis buffer (Pierce, Rockford, Ill.) containing Halt Phosphatase and Protease Inhibitors (Pierce, Rockford, Ill.) and Phosphatase inhibitor cocktail 2 (Sigma, St. Louis, Mo.) at 4° C. for 10 minutes with shaking.
(§2) Plate wells were washed with ELISA wash buffer. Cell lysate was added to wells and incubated at room temperature for 2 hours. Plate wells were washed with ELISA wash buffer. […] Plate wells were washed with ELISA wash buffer. […] Plate wells were washed with ELISA wash buffer. […] The reaction was stopped with 2N Sulfuric Acid. The plate was analyzed at on a plate reader measuring absorbance at 450 nm and 540 nm (background). Signal was calculated by first subtracting the background absorbance at 540 nm from the absorbance at 450 nm for each well. Next, the background corrected absorbance at 450 nm from blank wells was subtracted from test wells. Data was compared to control wells to determine % ATG13 phosphorylation. GraphPad Prism was used to calculate IC50 values.

[3] = system: ULK kinase; assay: pATG13 levels of mutant KRas MiaPaCa-2 cells after treatment with ULK inhibitors in combination with trametinib (ELISA); assay type: cell-based, human; conditions: MiaPaCa-2 pancreatic cancer cells, 250 nM trametinib, overnight, pS318-ATG13
Method: as §1, with “MiaPaCa-2” for “A549 (KRAS mutant)”, “pancreatic” for “lung”, “(10000” for “(6,000”, “G, 100 µg/mL streptomycin,” for “G,”, “2.5% Horse Serum” for “100 μg/mL streptomycin”
as §2

## CC(C)c1cc(N2CCN(C)CC2)ccc1Nc1ncc(Br)c(NCCCN2CCCCC2=O)n1 [Example 15]
[1]
  IC50: 25 to 100 nM

## CN1CCCN(c2ccc(Nc3ncc(C(F)(F)F)c(NCCCN4CCCCC4=O)n3)c(C3CC3)c2)CC1 [Example 24]
[1]
  IC50: 1 to 25 nM

## CN1CCN(c2ccc(Nc3ncc(Br)c(NCCCN4CCCCC4=O)n3)c(C3CC3)c2)CC1 [Example 26]
[1]
  IC50: 1 to 25 nM
[2]
  IC50: 100 to 300 nM
[3]
  IC50: 10 to 100 nM

## CN1CCN(c2ccc(Nc3ncc(Cl)c(NCCCN4CCCCC4=O)n3)c(C3CC3)c2)CC1 [Example 27]
[1]
  IC50: 25 to 100 nM
[2]
  IC50: 100 to 300 nM
[3]
  IC50: 100 to 300 nM

## CCN1CCN(c2ccc(Nc3ncc(C(F)(F)F)c(NCCCN4CCCCC4=O)n3)c(C(C)C)c2)CC1 [Example 28]
[1]
  IC50: 1 to 25 nM
[2]
  IC50: 100 to 300 nM
[3]
  IC50: 100 to 300 nM

## CCN1CCN(c2ccc(Nc3ncc(Cl)c(NCCCN4CCCCC4=O)n3)c(C(C)C)c2)CC1 [Example 29]
[1]
  IC50: 100 to 500 nM

## CCN1CCN(c2ccc(Nc3ncc(Br)c(NCCCN4CCCCC4=O)n3)c(C(C)C)c2)CC1 [Example 30]
[1]
  IC50: 25 to 100 nM
[2]
  IC50: 300 to 600 nM
[3]
  IC50: 100 to 300 nM

## CCc1cc(N2CCCN(C)CC2)ccc1Nc1ncc(C(F)(F)F)c(NCCCN2CCCCC2=O)n1 [Example 31]
[1]
  IC50: 1 to 25 nM
[2]
  IC50: 300 to 600 nM
[3]
  IC50: 100 to 300 nM

## CC(=O)N1CCN(c2ccc(Nc3ncc(C(F)(F)F)c(NCCCN4CCCCC4=O)n3)c(C3CC3)c2)CC1 [Example 36, 1-(3-((2-((4-(4-acetylpiperazin-1-yl)-2-cyclopropylphenyl)amino)-5-(trifluoromethyl)pyrimidin-4-yl)amino)propyl)piperidin-2-one]
[1]
  IC50: 25 to 100 nM
[2]
  IC50: > 600 nM
[3]
  IC50: > 600 nM

## CN1CCN(c2ccc(Nc3ncc(C(F)(F)F)c(NCCCN4CCCCCC4=O)n3)c(C3CC3)c2)CC1 [Example 38]
[1]
  IC50: 1 to 25 nM

## CN1CCN(c2ccc(Nc3ncc(Br)c(NCCCN4CCCOC4=O)n3)c(C3CC3)c2)CC1 [Example 40]
[1]
  IC50: 1 to 25 nM
[2]
  IC50: 10 to 100 nM
[3]
  IC50: 10 to 100 nM

## O=C1OCCCN1CCCNc1nc(Nc2ccc(N3CCN4CCC[C@@H]4C3)cc2C2CC2)ncc1C(F)(F)F [Example 42]
[1]
  IC50: 1 to 25 nM
[2]
  IC50: 10 to 100 nM
[3]
  IC50: 10 to 100 nM

## CCc1cc(N2CCN(C)CC2)ccc1Nc1ncc(Cl)c(NCCCN2CCCOC2=O)n1 [Example 43]
[1]
  IC50: 25 to 100 nM

## CCc1cc(N2CCN(C)CC2)ccc1Nc1ncc(Br)c(NCCCN2CCCOC2=O)n1 [Example 44]
[1]
  IC50: 1 to 25 nM
[2]
  IC50: 10 to 100 nM
[3]
  IC50: 10 to 100 nM

## CCc1cc(N2CCN(C)CC2)ccc1Nc1ncc(C2CC2)c(NCCCN2CCCOC2=O)n1 [Example 45]
[1]
  IC50: 100 to 500 nM

## CCc1cc(N2CCN(C)CC2)ncc1Nc1ncc(C(F)(F)F)c(NCCCN2CCCOCC2=O)n1 [Example 53]
[1]
  IC50: 25 to 100 nM

## O=C1COCCCN1CCCNc1nc(Nc2ccc(N3CCNCC3)cc2C2CC2)ncc1C(F)(F)F [Example 62]
[1]
  IC50: 1 to 25 nM
[2]
  IC50: 100 to 300 nM
[3]
  IC50: 10 to 100 nM

## CCc1cc(N2CCCN(C)CC2)ccc1Nc1ncc(C(F)(F)F)c(NCCCN2CCCOCC2=O)n1 [Example 63]
[1]
  IC50: 25 to 100 nM

## CCc1cc(N2CCN(C)CC2)ncc1Nc1ncc(C(F)(F)F)c(NCCCN2CCOCCC2=O)n1 [Example 67]
[1]
  IC50: 1 to 25 nM
[2]
  IC50: 100 to 300 nM
[3]
  IC50: 100 to 300 nM

## CC(C)c1cc(N2CCN(C)CC2)ccc1Nc1ncc(Br)c(NCCCN2CCCOCC2=O)n1 [Example 77]
[1]
  IC50: 25 to 100 nM

## CCc1cc(N2CCN(C)CC2)ccc1Nc1ncc(Cl)c(NCCCN2CCOCCC2=O)n1 [Example 80]
[1]
  IC50: 25 to 100 nM
[2]
  IC50: > 600 nM
[3]
  IC50: 100 to 300 nM

## CN1CCN(c2ccc(Nc3ncc(Br)c(NCCCN4CCOCCC4=O)n3)c(C3CC3)c2)CC1 [Example 81]
[1]
  IC50: 1 to 25 nM
[2]
  IC50: 100 to 300 nM
[3]
  IC50: 10 to 100 nM

## CCc1cc(N2CCN(C)CC2)ccc1Nc1ncc(C2CC2)c(NCCCN2CCOCCC2=O)n1 [Example 83]
[1]
  IC50: > 500 nM

## O=C1CCOCCN1CCCNc1nc(Nc2ccc(N3CCNCC3)cc2C2CC2)ncc1Cl [Example 89]
[1]
  IC50: 100 to 500 nM

## CN1CCN(c2ccc(Nc3cc(NCCCN4CCCCC4=O)c(C(F)(F)F)cn3)c(C3CC3)c2)CC1 [Example 94]
[1]
  IC50: 25 to 100 nM

## CN1CCN(c2ccc(Nc3cc(NCCCN4CCCCC4=O)c(C(F)(F)F)cn3)nc2)CC1 [Example 97, 1-(3-((2-((5-(4-methylpiperazin-1-yl)pyridin-2-yl)amino)-5-(trifluoromethyl)pyridin-4-yl)amino)propyl)piperidin-2-one]
[1]
  IC50: 100 to 500 nM

## CN1CCN(c2ccc(Nc3cc(NCCCN4CCOCCC4=O)c(Cl)cn3)c(C3CC3)c2)CC1 [Example 104]
[1]
  IC50: 100 to 500 nM

## CCc1cc(N2CCN3CCC[C@H]3C2)ccc1Nc1ncc(C(F)(F)F)c(NCCCN2CCCOC2=O)n1 [Example 121]
[1]
  IC50: 1 to 25 nM

## CCc1cc(N2CCN(C)CC2)ncc1Nc1ncc(C(F)(F)F)c(NCCCN2CCCOC2=O)n1 [Example 128]
[1]
  IC50: 1 to 25 nM

## CN1C2CCC1CN(c1ccc(Nc3ncc(C(F)(F)F)c(NCCCN4CCOCCC4=O)n3)c(C3CC3)c1)C2 [Example 133]
[1]
  IC50: 100 to 500 nM

## CN1CCN(c2ccc(Nc3ncc(C(F)(F)F)c(NCCCN4CCOCCC4=O)n3)c(C(C)(C)O)c2)CC1 [Example 134]
[1]
  IC50: > 500 nM

## CN1CCN(c2ccc(Nc3ncc(C(F)(F)F)c(NCCCN4CCCOC4=O)n3)c(C(C)(C)O)c2)CC1 [Example 135]
[1]
  IC50: 100 to 500 nM

## CN(C)C1CN(c2ccc(Nc3ncc(C(F)(F)F)c(NCCCN4CCOCCC4=O)n3)c(C3CC3)c2)C1 [Example 136]
[1]
  IC50: 1 to 25 nM

## CCc1cc(N2CC3CCC(C2)N3C)ccc1Nc1ncc(C(F)(F)F)c(NCCCN2CCCOCC2=O)n1 [Example 138]
[1]
  IC50: 100 to 500 nM

## CCc1cc(N2CC3CCC(C2)N3C)ccc1Nc1ncc(C(F)(F)F)c(NCCCN2CC(C)(C)C2=O)n1 [Example 139]
[1]
  IC50: > 500 nM

## CCc1cc(N2CC3CCC(C2)N3C)ccc1Nc1ncc(C(F)(F)F)c(NCCCN2CCC(C)(C)OC2=O)n1 [Example 140]
[1]
  IC50: 100 to 500 nM

## CCc1cc(N2CCN(C)CC2)ccc1Nc1ncc(C(F)(F)F)c(NCCCN2CC(C)(C)C2=O)n1 [Example 141]
[1]
  IC50: 25 to 100 nM

## CCc1cc(N2CCN(C)CC2)ccc1Nc1ncc(C(F)(F)F)c(NCCCN2CCOCC(C)(C)C2=O)n1 [Example 142]
[1]
  IC50: 1 to 25 nM

## CCc1cc(C2CCN(C)C2)ccc1Nc1ncc(C(F)(F)F)c(NCCCN2CCOCCC2=O)n1 (stereo not shown) [Example 143]
[1]
  IC50: 1 to 25 nM

## CCc1cc(N2CC[C@@H](N(C)C)C2)ccc1Nc1ncc(C(F)(F)F)c(NCCCN2CCOCCC2=O)n1 [Example 144]
[1]
  IC50: 1 to 25 nM

## CCc1cc(N2CC[C@H](N(C)C)C2)ccc1Nc1ncc(C(F)(F)F)c(NCCCN2CCOCCC2=O)n1 [Example 145]
[1]
  IC50: 1 to 25 nM

## CCc1cc(C2CCN(C)CC2)ccc1Nc1ncc(C(F)(F)F)c(NCCCN2CCOCCC2=O)n1 [Example 146]
[1]
  IC50: 25 to 100 nM

## CN(C)CC1CN(c2ccc(Nc3ncc(C(F)(F)F)c(NCCCN4CCCCC4=O)n3)c(C3CC3)c2)C1 [Example 151]
[1]
  IC50: 1 to 25 nM

## CCc1cc(N2CC(CN(C)C)C2)ccc1Nc1ncc(C(F)(F)F)c(NCCCN2CCOCCC2=O)n1 [Example 152]
[1]
  IC50: 1 to 25 nM

From US11530206B2, “Phenylaminopyrimidine amide autophagy inhibitors and methods of use thereof” (Deciphera Pharmaceuticals, LLC, priority 2019, dated 2022)
